Earlier results on one compound are cited in paper PMC4948595 (Journal of Medicinal Chemistry, 2016).

The test system of this data set is influenza endonuclease.

For `O=c1[nH]cc(-c2ccc(-c3nnn[nH]3)cc2)cc1O` [Parhi-6], the IC50 (commonly the concentration needed to halve the response being measured) was 0.368 ± 0.041 µM.
